Data published in PubChem BioAssay (NCI).
Several values for one entry are separate records, joined by “and”; a condition that tells them apart may be missing. Identical values can stand only once.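 Values below derive from 48-hour exposures of cells grown in 96-well plates, with endpoints linearly interpolated between the two concentrations bracketing the appropriate inhibition level. The concentration for 50% growth inhibition is given as GI50. TGI is the concentration that stops growth completely.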

Key:
Assay in all cases: NCI-60 cell line screen, 48 h
SW-620 colon = system: SW-620 colon
MCF7 breast = system: MCF7 breast
SK-MEL-5 melanoma = system: SK-MEL-5 melanoma
CCRF-CEM leukemia = system: CCRF-CEM leukemia
OVCAR-5 ovarian = system: OVCAR-5 ovarian
HT29 colon = system: HT29 colon
ACHN renal = system: ACHN renal
NCI-H23 lung = system: NCI-H23 lung
K-562 leukemia = system: K-562 leukemia
HCT-116 colon = system: HCT-116 colon

SMILES | GI50 (SW-620 colon) | TGI (SW-620 colon) | GI50 (MCF7 breast) | TGI (MCF7 breast) | GI50 (SK-MEL-5 melanoma) | TGI (SK-MEL-5 melanoma) | GI50 (CCRF-CEM leukemia) | TGI (CCRF-CEM leukemia) | GI50 (OVCAR-5 ovarian) | TGI (OVCAR-5 ovarian) | GI50 (HT29 colon) | TGI (HT29 colon) | GI50 (ACHN renal) | TGI (ACHN renal) | GI50 (NCI-H23 lung) | TGI (NCI-H23 lung) | GI50 (K-562 leukemia) | TGI (K-562 leukemia) | GI50 (HCT-116 colon) | TGI (HCT-116 colon)
O=C(c1cccs1)c1nc2cc(Cl)ccc2[n+]([O-])c1C(F)(F)F | > 100 µM | > 100 µM | 52.2 µM | > 100 µM | 45.4 µM | > 100 µM | > 100 µM | > 100 µM | > 100 µM | > 100 µM | 58.9 µM | > 100 µM | > 100 µM | > 100 µM | > 100 µM | > 100 µM | > 100 µM | > 100 µM | 23.2 µM | > 100 µM
CCCOc1ccc(/C=N/Nc2cc(C)nc3ccc(Cl)cc23)cc1 | 1.96 µM | 3.79 µM | 1.67 µM | 3.4 µM | 1.54 µM | 2.88 µM | 1.78 µM | 4.08 µM | 1.87 µM | 3.28 µM | 1.8 µM | 3.49 µM | 1.74 µM | 3.12 µM | 1.81 µM | 3.52 µM | 1.48 µM | 3.13 µM | 1.7 µM | 3.32 µM
COc1cc2c(cc1OCCCCn1c(-c3cccs3)nc3ccccc31)N=C[C@@H]1CCCN1C2=O | 1.84 µM | 10.3 µM | 0.66 µM | 12.5 µM | 1.09 µM | 2.3 µM | 0.247 µM | 1.37 µM | 3.27 µM | 9.13 µM | 1.97 µM | 14.6 µM | 2.81 µM | 7.73 µM | 2.05 µM | 4.4 µM | 15.5 µM | > 100 µM | 1.75 µM | –
O=Cc1ccc(-c2ccc(-c3ccc(C=O)o3)[se]2)o1 | > 100 µM | > 100 µM | 6.35 µM | > 100 µM | > 100 µM | > 100 µM | > 100 µM | > 100 µM | > 85.2 µM | > 100 µM | > 100 µM | > 100 µM | 45.5 µM | > 100 µM | 56.3 µM | > 100 µM | > 100 µM | > 100 µM | > 100 µM | > 100 µM
FC(F)(F)c1ccc(-c2ncc(-c3ccc(C(F)(F)F)cc3)c(NCc3cc(C(F)(F)F)cc(C(F)(F)F)c3)n2)cc1 | 3.95 µM | > 100 µM | 3.94 µM | > 100 µM | 16.5 µM | 41.8 µM | 4.34 µM | > 100 µM | 6.02 µM | > 100 µM | 6.95 µM | > 100 µM | 3.91 µM | > 100 µM | 3.24 µM | 23.8 µM | 3.97 µM | > 100 µM | 3.84 µM | > 100 µM
NC(=N\N=C/c1ccc(Cl)cc1Cl)/C(N)=N\N=C/c1ccc(Cl)cc1Cl | > 54.3 µM | > 100 µM | > 73.8 µM | > 100 µM | > 100 µM | > 100 µM | 36.5 µM | > 100 µM | > 100 µM | > 100 µM | > 100 µM | > 100 µM | 0.576 µM | 15.6 µM | 39.3 µM | > 100 µM | 63.1 µM | > 100 µM | 1.19 µM | > 100 µM
FC(F)(F)c1cc(-c2ncn(/C=C\c3nnco3)n2)cc(C(F)(F)F)c1 | 0.0536 µM | > 43.1 µM | 0.0414 µM | 2.94 µM | 0.165 µM | 2.74 µM | 0.107 µM | > 100 µM | 0.267 µM | > 63.3 µM | 0.12 µM | 48.2 µM | 0.163 µM | > 96.2 µM | 0.146 µM | > 41.4 µM | 0.06 µM | > 42.2 µM | 0.0621 µM | > 41.9 µM
CCOc1cc(/C=C/C(=O)C(C(=O)/C=C/c2ccc(OC(=O)CNc3nnc(C)s3)c(OCC)c2)C(=O)CNc2nnc(C)s2)ccc1OC(=O)CNc1nnc(C)s1 | 1.18 µM | 2.74 µM | 0.317 µM | 2.28 µM | 1.71 µM | 3.29 µM | 0.251 µM | 1.06 µM | 2.43 µM | 5.41 µM | 0.515 µM | 1.85 µM | 1.77 µM | 3.42 µM | 1.97 µM | 5.58 µM | 0.352 µM | > 100 µM | 0.952 µM | 4.42 µM
O=C(O)c1ccc(C(=O)O)c(C(=O)O)c1.[NH-]C1CCCCC1[NH-].[Pt+2] | 0.43 µM | 57.9 µM | 2.3 µM | 31.9 µM | 1.43 µM | 14.5 µM | 0.858 µM and 4.49 µM | 66.8 µM | 6.32 µM | 35.5 µM | 0.998 µM | 54.9 µM | 1.96 µM | 44.1 µM | 4.87 µM | 38.4 µM | – | 88.9 µM | 1.07 µM | 47.3 µM
O=C1C=CC(=O)N1c1ccc(I)cc1 | – | 49.3 µM | – | 45.3 µM | – | 34.1 µM | – | 12 µM | – | 47.6 µM | – | 45.1 µM | – | 33.3 µM | – | 51.2 µM | – | 53.5 µM | – | 30.9 µM
Cc1cc(=O)oc2cc(OC(=O)Nc3ccccc3)ccc12 | – | > 100 µM | – | > 100 µM | – | > 100 µM | – | 74.2 µM | – | > 100 µM | – | > 100 µM | – | > 100 µM | – | > 100 µM | – | > 100 µM | – | > 100 µM
